System: 186277-243-T-J2-PDC multi-cell spheroid viability
Assay: Anticancer human tumor 186277-243-T-J2-PDC patient-derived colon adenocarcinoma cell line growth inhibition [PI3K]
Conditions: for IC50: curve of first compound; for viability, T/C: stronger effect = lower value
Summary of the method: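 Targeted small molecules plus PI3K inhibitors, half-log dose series from Cmax (default top 10 microM), were applied to heterotypic spheroids of cancer cells with HUVEC and MSCs. Viability indicated growth inhibition.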

[1] = second compound 0.00316 µM, first compound 0.0316 µM
[2] = second compound 0.00316 µM, first compound 0.1 µM
[3] = second compound 0.00316 µM, first compound 0.316 µM
[4] = second compound 0.00316 µM, first compound 1 µM
[5] = second compound 0.00316 µM, first compound 3.16 µM
[6] = second compound 0.00316 µM, first compound 10 µM
[7] = second compound 0.01 µM, first compound 0.0316 µM
[8] = second compound 0.01 µM, first compound 0.1 µM
[9] = second compound 0.01 µM, first compound 0.316 µM
[10] = second compound 0.01 µM, first compound 1 µM
[11] = second compound 0.01 µM, first compound 3.16 µM
[12] = second compound 0.01 µM, first compound 10 µM
[13] = second compound 0.0316 µM, first compound 0.0316 µM
[14] = second compound 0.0316 µM, first compound 0.1 µM
[15] = second compound 0.0316 µM, first compound 0.316 µM
[16] = second compound 0.0316 µM, first compound 1 µM
[17] = second compound 0.0316 µM, first compound 3.16 µM
[18] = second compound 0.0316 µM, first compound 10 µM
[19] = second compound 0.1 µM, first compound 0.0316 µM
[20] = second compound 0.1 µM, first compound 0.1 µM
[21] = second compound 0.1 µM, first compound 0.316 µM
[22] = second compound 0.1 µM, first compound 1 µM
[23] = second compound 0.1 µM, first compound 3.16 µM
[24] = second compound 0.1 µM, first compound 10 µM
[25] = second compound 0.316 µM, first compound 0.0316 µM
[26] = second compound 0.316 µM, first compound 0.1 µM
[27] = second compound 0.316 µM, first compound 0.316 µM
[28] = second compound 0.316 µM, first compound 1 µM
[29] = second compound 0.316 µM, first compound 3.16 µM
[30] = second compound 0.316 µM, first compound 10 µM
[31] = second compound 1 µM, first compound 0.0316 µM
[32] = second compound 1 µM, first compound 0.1 µM
[33] = second compound 1 µM, first compound 0.316 µM
[34] = second compound 1 µM, first compound 1 µM
[35] = second compound 1 µM, first compound 3.16 µM
[36] = second compound 1 µM, first compound 10 µM
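Further: spheroids exposed to compounds for seven days before viability reading.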
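Wherever viability, T/C is given: 100% = DMSO vehicle control viability.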

## CC(Cn1ccc(-c2ccc(C#N)c(Cl)c2)n1)NC(=O)c1cc(C(C)O)[nH]n1 (stereo unspecified) + CC(Nc1ccc2c(c1)OCCn1cc(N3C(=O)OCC3C(F)F)nc1-2)C(N)=O
Second compound 0.00316 µM
  IC50: > 10000 nM
Second compound 0.01 µM
  IC50: > 10000 nM
Second compound 0.0316 µM
  IC50: > 10000 nM
Second compound 0.1 µM
  IC50: > 10000 nM
Second compound 0.316 µM
  IC50: > 10000 nM
Second compound 1 µM
  IC50: < 31.6 nM
[1]
  viability, T/C: 97.8%
[2]
  viability, T/C: 97%
[3]
  viability, T/C: 91.3%
[4]
  viability, T/C: 84.9%
[5]
  viability, T/C: 93.6%
[6]
  viability, T/C: 102%
[7]
  viability, T/C: 101%
[8]
  viability, T/C: 93.2%
[9]
  viability, T/C: 95.6%
[10]
  viability, T/C: 91.6%
[11]
  viability, T/C: 108%
[12]
  viability, T/C: 91.7%
[13]
  viability, T/C: 106%
[14]
  viability, T/C: 95.3%
[15]
  viability, T/C: 102%
[16]
  viability, T/C: 111%
[17]
  viability, T/C: 111%
[18]
  viability, T/C: 95.5%
[19]
  viability, T/C: 104%
[20]
  viability, T/C: 107%
[21]
  viability, T/C: 101%
[22]
  viability, T/C: 90.1%
[23]
  viability, T/C: 88.8%
[24]
  viability, T/C: 74.4%
[25]
  viability, T/C: 81.3%
[26]
  viability, T/C: 82%
[27]
  viability, T/C: 74.6%
[28]
  viability, T/C: 73%
[29]
  viability, T/C: 67.7%
[30]
  viability, T/C: 57.7%
[31]
  viability, T/C: 47.7%
[32]
  viability, T/C: 45.9%
[33]
  viability, T/C: 44.9%
[34]
  viability, T/C: 45.6%
[35]
  viability, T/C: 44%
[36]
  viability, T/C: 35.4%

## CC1(C)CCC(Nc2ncc(C(F)(F)F)c(-c3c[nH]c4c(P(C)(C)=O)c(C#N)ccc34)n2)CN1 (stereo unspecified) + CC(Nc1ccc2c(c1)OCCn1cc(N3C(=O)OCC3C(F)F)nc1-2)C(N)=O
Second compound 0.00316 µM
  IC50: 3600 nM
Second compound 0.01 µM
  IC50: 3860 nM
Second compound 0.0316 µM
  IC50: 3520 nM
Second compound 0.1 µM
  IC50: 1650 nM
Second compound 0.316 µM
  IC50: 56.9 nM
Second compound 1 µM
  IC50: < 31.6 nM
[1]
  viability, T/C: 71.6%
[2]
  viability, T/C: 45.1%
[3]
  viability, T/C: 52.8%
[4]
  viability, T/C: 56.5%
[5]
  viability, T/C: 56.6%
[6]
  viability, T/C: 1.03%
[7]
  viability, T/C: 69.1%
[8]
  viability, T/C: 52.9%
[9]
  viability, T/C: 55%
[10]
  viability, T/C: 58.9%
[11]
  viability, T/C: 66.3%
[12]
  viability, T/C: 0.23%
[13]
  viability, T/C: 78%
[14]
  viability, T/C: 54.3%
[15]
  viability, T/C: 51.7%
[16]
  viability, T/C: 57.8%
[17]
  viability, T/C: 55.3%
[18]
  viability, T/C: 0.17%
[19]
  viability, T/C: 72.7%
[20]
  viability, T/C: 54.3%
[21]
  viability, T/C: 60.4%
[22]
  viability, T/C: 55.6%
[23]
  viability, T/C: 43.6%
[24]
  viability, T/C: 0.46%
[25]
  viability, T/C: 54.2%
[26]
  viability, T/C: 49.7%
[27]
  viability, T/C: 33.4%
[28]
  viability, T/C: 41%
[29]
  viability, T/C: 22.6%
[30]
  viability, T/C: 0.44%
[31]
  viability, T/C: 34.5%
[32]
  viability, T/C: 29.1%
[33]
  viability, T/C: 22.6%
[34]
  viability, T/C: 26.4%
[35]
  viability, T/C: 12.2%
[36]
  viability, T/C: 1.38%

## Cn1nccc1Nc1nccc(-c2ccn(C(CO)c3ccc(Cl)c(F)c3)c(=O)c2)n1 (stereo unspecified) + CC(Nc1ccc2c(c1)OCCn1cc(N3C(=O)OCC3C(F)F)nc1-2)C(N)=O
Second compound 0.00316 µM
  IC50: 1870 nM
Second compound 0.01 µM
  IC50: 1770 nM
Second compound 0.0316 µM
  IC50: 1470 nM
Second compound 0.1 µM
  IC50: 377 nM
Second compound 0.316 µM
  IC50: 74.7 nM
Second compound 1 µM
  IC50: < 31.6 nM
[1]
  viability, T/C: 105%
[2]
  viability, T/C: 114%
[3]
  viability, T/C: 113%
[4]
  viability, T/C: 69.3%
[5]
  viability, T/C: 37.2%
[6]
  viability, T/C: 22.8%
[7]
  viability, T/C: 111%
[8]
  viability, T/C: 121%
[9]
  viability, T/C: 109%
[10]
  viability, T/C: 67.3%
[11]
  viability, T/C: 33.5%
[12]
  viability, T/C: 22%
[13]
  viability, T/C: 103%
[14]
  viability, T/C: 110%
[15]
  viability, T/C: 98.4%
[16]
  viability, T/C: 61.1%
[17]
  viability, T/C: 28.1%
[18]
  viability, T/C: 20.9%
[19]
  viability, T/C: 124%
[20]
  viability, T/C: 86.5%
[21]
  viability, T/C: 54.2%
[22]
  viability, T/C: 28.9%
[23]
  viability, T/C: 16.4%
[24]
  viability, T/C: 7.14%
[25]
  viability, T/C: 70.4%
[26]
  viability, T/C: 44.5%
[27]
  viability, T/C: 20.3%
[28]
  viability, T/C: 15.9%
[29]
  viability, T/C: 9.67%
[30]
  viability, T/C: 4.2%
[31]
  viability, T/C: 38.1%
[32]
  viability, T/C: 29.4%
[33]
  viability, T/C: 14.2%
[34]
  viability, T/C: 9.05%
[35]
  viability, T/C: 10.6%
[36]
  viability, T/C: 3.67%
